Reference: patent US12187717B2, “Compound and use thereof in treating autoimmune diseases” (PARENCHYMA BIOTECH INC., priority 2022, dated 2025)

Columns and labels:
[1] = tested on: Foxp3-expressing regulatory T cells (Treg); assay: Production of Foxp3-expressing regulatory T cells from naive CD4 T cells (flow cytometry); type: cell-based, C57BL/6 mice; conditions: 3 days
Description: The spleen of C57BL/6 mice (8 to 12 weeks old, female) was excised, pulverized by adding RPMI medium, and then passed through a 40 μm cell strainer (BD Falcon), thereby obtaining a single cell suspension. The single cell suspension was centrifuged (1200 rpm, 5 minutes), and after discarding the supernatant, 1 ml of ACK lysis buffer was added, followed by stirring for 1 minute and then washing the same with RPMI medium. After the single cell suspension was centrifuged, T-cells were separated using a Mouse CD4 Naive T cell Enrichment Kit (Invitrogen). The separated T-cells were prepared by resuspending them in RPMI-fetal bovine serum (FBS) 10%+2-ME (mercaptoethanol) medium at 1×10^6/ml. For T-cell activation, 5 μg/ml anti-CD3 (eBioscience™) was dispensed by 100 μl onto a 96-well plate, reacted in a cell incubator (37° C., 5% CO2 incubator) for 4 hours, and washed with phosphate buffered saline to prepare the plate. The T-cells were dispensed by 200 μl onto the prepared plate, and each well was treated with 2 μg/ml of anti-CD28 (eBioscience™), 2 ng/ml of TGFβ-1 (R&D systems), and 100 U/ml of IL-2. Each 5 μl of Compounds 6 and 9 at a concentration of 2.5 μM diluted in RPMI-fetal bovine serum 10%+2-ME medium was used for treatment, followed by culturing the same in a cell incubator (37° C., 5% CO2 incubator) for 3 days. […]
In order to confirm the expression of Foxp3 protein, the recovered cells were placed in a 5 ml FACS tube (BD Falcon) and washed with 1 ml of phosphate buffered saline. […] The cells were washed twice with the Permeabilization buffer, suspended in 0.3 ml of FACS buffer, and measured by flow cytometry.
The promotion effects of Compound 6 and Comparative Example 1 on the production of “FoxP3-expressing regulatory T cells,” which play an important role in maintaining immune tolerance, were compared (FIG. 24). […] After 3 days, in order to confirm the effects of production of the regulatory T cells, the cultured cells were recovered and Foxp3 protein expression was measured in the same manner as in FIG. 4.

[2] = tested on: neutrophilic asthma; assay: Neutrophilic asthma model (LPS/OVA); type: in vivo, C57BL/6 mice; conditions: 10 mg/kg oral daily, 27th to 36th days, compared to solvent control
Description: Sensitization was induced in C57BL/6 mice (7 weeks old, female) by intranasally administering 10 μg of LPS (lipopolysaccharide, Sigma Aldrich, Cat No. L2630) and 75 μg of OVA (Ovalbumin, Sigma Aldrich, Cat No. A5503) diluted in phosphate buffered saline (20 μl in total) on the 0th, 1st, 2nd and 7th days of the experiment. From the 14th day of the experiment, 50 μg of OVA diluted in phosphate buffered saline was challenged by intranasal administration for a total of 8 times at an interval of 2 days a week until the 36th day. The intranasal administration was performed after anesthesia using an isoflurane inhalation anesthetic. In the compound 6 administration group according to an embodiment of the present invention, 10 mg/kg of Compound 6 per mouse was completely dissolved in an ethanol-Cremophor EL mixture corresponding to 7.5% (v/v) of the administered dose, and then, was diluted in phosphate buffered saline to prepare the final ethanol:Cremophor EL:phosphate buffered saline (0.375:0.375:9.25, v/v/v), followed by oral administration with 200 μl of the prepared solution daily for a total of 10 times from the 27th to the 36th days of the experiment.

[3] = tested on: DSS-induced inflammatory bowel disease; assay: DSS-induced inflammatory bowel disease model: severity index and colon weight:length ratio; type: in vivo, C57BL/6 mice; conditions: 10 mg/kg oral daily, compared to solvent control
Description: On day 0 of the experiment, a 2.0% DSS solution prepared by dissolving DSS (Dextran sulfate sodium, MP biomedicals, Cat No. 160110) in […] was given for drinking to C57BL/6 mice (11 weeks old, female, 20±2 g) for 7 days. The 2.0% DSS solution was changed at an interval of 2 days. Sterile distilled water was provided for drinking from the 8th day of the experiment. Body weight and severity index were measured at an interval of 2 days from the 0th day of the experiment in order to confirm the onset of inflammatory bowel disease.
10 mg/kg of Compound 6 per mouse was completely dissolved in an ethanol-Cremophor EL mixture corresponding to 7.5% (v/v) of the administered dose, and then, was diluted in phosphate buffered saline to prepare the final ethanol:Cremophor EL:phosphate buffered saline (0.375:0.375:9.25, v/v/v), followed by oral administration of 200 μl daily for a total of 14 times from the 1st to 14th days of the experiment. An inflammatory bowel disease severity index was visually observed and recorded at an interval of 2 days according to a severity index system classified into 0 to 10 levels.
Inflammatory bowel disease symptoms were evaluated by summing the scores of three items according to the following items (Table 2).

Q: Which “production of Foxp3-expressing regulatory T cells” value ([1]; 2.5 μM and 5 μM, compared to Comparative Example 1) does the source give for `O=C(Cc1c[nH]c2ccc(Cl)cc12)Nc1nc2ccc(N3CCOCC3)cc2s1` [Compound 6, 2-(5-chloro-1H-indol-3-yl)-N-(6-morpholinobenzo[d]thiazol-2-yl)acetamide] here?
A: significantly increased

Q: What about the “production of Foxp3-expressing regulatory T cells” value ([1]; 2.5 μM, compared to Vehicle) of the same compound?
A: markedly increased

Q: And the “number of neutrophils in the bronchoalveolar lavage (BAL)” value [2]?
A: significantly decreased

Q: What about the “inflammatory bowel disease severity index” value ([3]; 10th day) of the same compound?
A: statistically significant therapeutic effects

Q: And the “colon weight:length ratio” value ([3]; 15th day)?
A: significantly suppressed
